pIC50: −log10 of the molar value. Where two headings read alike, the source gives them in different places.

One assay addresses T1, recombinant EphB4 (Homo sapiens, UniProt P54760).
T1 construct: amino acids 563-987; Swiss-Prot Acc; No. P54760; purchased ProQinase GmbH 0178-0000-3
T1 sequence (P54760 563-987): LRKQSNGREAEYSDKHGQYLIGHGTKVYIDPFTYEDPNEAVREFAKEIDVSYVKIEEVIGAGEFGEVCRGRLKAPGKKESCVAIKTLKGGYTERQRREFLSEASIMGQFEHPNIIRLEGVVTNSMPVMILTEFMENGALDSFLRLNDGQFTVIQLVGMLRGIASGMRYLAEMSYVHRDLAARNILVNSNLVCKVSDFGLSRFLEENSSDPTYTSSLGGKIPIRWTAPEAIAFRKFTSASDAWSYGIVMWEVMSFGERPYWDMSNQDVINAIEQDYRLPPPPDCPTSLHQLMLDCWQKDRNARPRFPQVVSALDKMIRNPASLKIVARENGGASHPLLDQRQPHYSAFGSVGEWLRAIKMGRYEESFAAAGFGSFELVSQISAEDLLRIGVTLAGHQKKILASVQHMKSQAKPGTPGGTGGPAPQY
The assay is described as follows: In vitro EphB4 enzyme assay (Alphascreen, phosphorylation of biotin-poly-GAT). It is filed as biochemical. The settings on record: * = tested once only, read-out: EphB4 enzyme assay Mean IC50 value. On the procedure:
A) In vitro EphB4 Enzyme Assay
(§1) This assay detects inhibitors of EphB4-mediated phosphorylation of a polypeptide substrate using Alphascreen™ luminescence detection technology. Briefly, recombinant EphB4 was incubated with a biotinylated-polypeptide substrate (biotin-poly-GAT) in presence of magnesium-ATP. The reaction was stopped by addition of EDTA, together with streptavidin-coated donor beads which bind the biotin-substrate containing any phosphorylated tyrosine residues. Anti-phosphotyrosine antibodies present on acceptor beads bind to phosphorylated substrate, thus bringing the donor & acceptor beads into close proximity. Subsequent excitation of the donor beads at 680 nm generated singlet oxygen species that interact with a chemiluminescer on the acceptor beads, leading to light emission at 520-620 nm. The signal intensity is directly proportional to the level of substrate phosphorylation and thus inhibition is measured by a decrease in signal.
Aqueous Compound Preparation:
Acoustic Compound Preparation:
To ensure that each well contained a total of 120 nl DMSO the wells were all backfilled as required. […] The test range of compounds was 100× the required final concentration.
Assay plates were then incubated at room temperature for 1 hour.
For assays using compounds prepared via acoustic dispensing, the assay mix was adjusted such that the final assay volume of 12 ul contained the same concentration of reagent as 10 ul of assay mix used when aqueous compounds were tested.
The plates were sealed under natural lighting conditions, wrapped in aluminium foil and incubated in the dark for a further 20 hours.
The resulting assay signal was determined on the Perkin Elmer EnVision plate reader. The minimum value was subtracted from all values, and the signal plotted against compound concentration to generate IC50 data. The method used to generate the compound dilutions was recorded with the IC50 value in the database.
For orientation: Alpha assays give light when donor and acceptor beads are brought close together.

For a further assay, the target named is T2, recombinant EphA2 (Homo sapiens, UniProt P29317).
T2 construct: amino acids 591-976; Swiss-Prot Acc; No. P29317; purchased ProQinase GmbH 0368-0000-1
T2 sequence (P29317 591-976): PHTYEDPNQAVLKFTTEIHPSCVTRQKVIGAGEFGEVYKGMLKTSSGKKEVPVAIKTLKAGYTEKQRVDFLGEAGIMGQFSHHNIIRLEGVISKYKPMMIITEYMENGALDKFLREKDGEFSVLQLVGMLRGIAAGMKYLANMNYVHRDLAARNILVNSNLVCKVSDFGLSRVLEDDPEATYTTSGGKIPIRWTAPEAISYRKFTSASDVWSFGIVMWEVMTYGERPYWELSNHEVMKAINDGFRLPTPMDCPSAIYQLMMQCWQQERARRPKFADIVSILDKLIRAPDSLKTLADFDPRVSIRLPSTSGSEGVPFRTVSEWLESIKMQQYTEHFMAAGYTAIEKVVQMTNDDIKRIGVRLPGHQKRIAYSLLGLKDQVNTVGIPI
The assay is described as follows: In vitro EphA2 enzyme assay (Alphascreen, phosphorylation of biotin-poly-GAT). The assay is classed as biochemical. How it is done: C) In vitro EphA2 Enzyme Assay
as §1, with “EphA2-mediated” for “EphB4-mediated”, “EphA2” for “EphB4”
Test compounds were prepared as 10 mM stock solutions in DMSO (Sigma-Aldrich Company Ltd, Gillingham, Dorset SP8 4XT Catalogue No. 154938) and serially diluted with 5% DMSO to give a range of test concentrations at 6× the required final concentration. […]
The resulting assay signal was determined on the Perkin Elmer EnVision plate reader. […]

Where [1] appears, read: Method of compound preparation: Genesis (aqueous compound preparation).
Setting [2] is: Method of compound preparation: Echo (acoustic dispensing).

For orientation: pIC50 means the negative decadic logarithm of the IC50, by convention in mol/L. `Clc1ccc2c(c1Nc1ccnc(Nc3cc(N4CCOCC4)nc(N4CCOCC4)c3)n1)OCO2` [Example 1, N4-(5-chlorobenzo[d][1,3]dioxol-4-yl)-N2-(2,6-dimorpholinopyridin-4-yl)pyrimidine-2,4-diamine]: the negative-log IC50 (pIC50) at recombinant EphB4 (setting [1]) was 6.30.

For the molecule `CN(c1ccnc(Nc2cc(N3CCOCC3)nc(N3CCOCC3)c2)n1)c1c(Cl)ccc2c1OCO2` [Example 2, N4-(5-chlorobenzo[d][1,3]dioxol-4-yl)-N2-(2,6-dimorpholinopyridin-4-yl)-N4-methylpyrimidine-2,4-diamine], on recombinant EphB4 (setting [1]), the pIC50 is 6.22. On to `CN(c1ccnc(Nc2ccnc(N3CCOCC3)c2)n1)c1cccc2[nH]ncc12` [Example 4, N′-(1H-indazol-4-yl)-N′-methyl-N-(2-morpholin-4-ylpyridin-4-yl)pyrimidine-2,4-diamine], for which the values for the pIC50 on recombinant EphB4 (setting [2]) and at recombinant EphB4 (setting [1]) were 8.52 and 6.84, respectively. As for `CN(c1ccnc(Nc2cc(Cl)cc(N3CCOCC3)n2)n1)c1cccc2[nH]ncc12` [Example 6, N-(4-chloro-6-morpholin-4-yl-pyridin-2-yl)-N′-(1H-indazol-4-yl)-N′-methyl-pyrimidine-2,4-diamine], the pIC50 at recombinant EphB4 (setting [2]) was 8.15; on recombinant EphB4 (setting [1]), 6.01. Turning to `CN(c1ccnc(Nc2cc(Cl)nc(N3CCOCC3)c2)n1)c1cccc2[nH]ncc12` [Example 8, N-(2-chloro-6-morpholin-4-yl-pyridin-4-yl)-N′-(1H-indazol-4-yl)-N′-methyl-pyrimidine-2,4-diamine], the negative logarithm of the IC50 (pIC50) was 8.40 at recombinant EphB4 (setting [2]) and 6.35 on recombinant EphB4 (setting [1]). Take `Clc1ccc2c(c1Nc1ccnc(Nc3cc(N4CCOCC4)ccn3)n1)OCO2` [Example 9, N′-(5-chloro-1,3-benzodioxol-4-yl)-N-(4-morpholino-2-2pyridyl)pyrimidine-2,4-diamine]: the pIC50 on recombinant EphB4 (setting [2]) is 7.28; on recombinant EphB4 (setting [1]) it was 6.77; at recombinant EphA2, 6.88. `Clc1ccc2c(c1Nc1ccnc(Nc3cccc(N4CCOCC4)n3)n1)OCO2` [Example 10, N′-(5-chloro-1,3-benzodioxol-4-yl)-N-(6-morpholino-2-pyridyl)pyrimidine-2,4-diamine]: the negative logarithm of the IC50 (pIC50) was 7.19 on recombinant EphB4 (setting [2]), 6.09 on recombinant EphB4 (setting [1]) and 6.25 on recombinant EphA2. Take `Cc1nc(Nc2nccc(Nc3c(Cl)ccc4c3OCO4)n2)cc(N2CCN(C)CC2)n1` [Example 12, N′-(5-chloro-1,3-benzodioxol-4-yl)-N-[2-methyl-6-(4-methylpiperazin-1-yl)pyrimidin-4-yl]pyrimidine-2,4-diamine]: the negative logarithm of the IC50 (pIC50) on recombinant EphB4 (setting [1]) was 5.19.
